# System: human myeloma cell line MM.1S
# Assay: SILAC acetylated-lysine peptide profiling, HDAC inhibitor vs DMSO (light/heavy ratio)
# Assay type: cell-based
# Description: An embodiment of the invention comprises utilizing the SILAC method in order to quantitate changes in protein expression between two or more populations of cells. The SILAC method is a technique based on mass spectrometry that detects differences in protein abundance among samples using non-radioactive isotopic labeling. The SILAC method is known in the art, and described in detail in Ong et al., “Stable Isotope Labeling by Amino Acids in Cell Culture, SILAC, as a Simple and Accurate Approach to Expression Proteomics”, Molecular & Cellular Proteomics, vol. 1, pp. 376-386 (2002), which is incorporated herein by reference in its entirety.
# Briefly, the SILAC method involves growing two populations of cells in cell culture. The first population of cells is grown in growth media containing normal amino acids (“normal media”). The second population of cells is grown in media lacking a standard essential amino acid (such as lysine), but is then supplemented with a non-radioactive, isotopically labeled form of that essential amino acid (such as lysine labeled with ^13C atoms, rather than normal ^12C atoms), which is called “heavy media”. When the two populations of cells are each growing in the medium, they incorporate the amino acids into all of their proteins. The growth of cells maintained in the heavy media is no different from that in normal media. All peptides containing the heavy amino acids are heavier than their normal counterparts. The cells from each of the two populations of cells are lysed. The lysates from each of the two cell populations are then combined. The combined cell lysates are then analyzed by mass spectrometry. Pairs of chemically identical peptides of different stable isotope composition can be differentiated in a mass spectrometer due to their difference in mass. The ratio of peak intensities in the mass spectrum for such peptide pairs reflects the abundance ratio for the two proteins.
# This example describes SILAC studies that were performed to compare the effects of three different HDAC inhibitors (Compound A, Compound B, and tubastatin A) to a control on a human multiple myeloma cell line. The HDAC inhibitors were also compared amongst themselves to determine differences in their effects.
# A human myeloma cell line MM.1S was grown using either ^12C (light) or ^13C (heavy) lysine containing culture medium. The “heavy” cells were treated with DMSO as the control, and the “light” cells were treated with a single HDAC inhibitor at 37° C. for 6 hours. The heavy and light cells were lysed, and the lysates were mixed in 1:1 ratio and digested with the protease trypsin. The acetylated lysine containing peptides (due to the action of the HDAC inhibitor) in the digested peptide pool were captured by a non-specific anti-acetylated lysine antibody cocktail (the antibodies identify both light and heavy acetylated peptides), and subjected to mass spectrometry analysis in order to identify thousands of individual peptides.
# Thousands of peptides were identified in pairs (^12C and ^13C) due to their known mass differences. The amino acid sequence and quantitative ratio (Light/Heavy) of a given peptide in two differentially treated cell lysates were then determined and annotated with their possible protein (gene) sources.
# As stated above, three HDAC inhibitors (Compound A, Compound B, and Tubastatin A) were used. Thus, the SILAC method was performed three times, with a different HDAC inhibitor compared to a control each time. Accordingly, there are three pairs of quantitative data in the table below, i.e., Compound A:DMSO, Compound B:DMSO, and Tubastatin A:DMSO. A cut-off of 1.30 fold of change (increase or decrease) was then used to determine “changed” or “+” in the table, and any peptides with a fold of change less than 1.3 fold were determined to be “unchanged” or “0” in the table. Those peptides that were not identified were marked as “NA” in the table. […]
compound,measurement,setting,value
"O=C(CCCCCCNC(=O)c1cnc(N(c2ccccc2)c2ccccc2)nc1)NO [Compound A, 2-(diphenylamino)-N-(7-(hydroxyamino)-7-oxoheptyl)pyrimidine-5-carboxamide]",L/H ratio of acetylated peptide TVGQLYK(ac)EQLAK,"SEQ ID NO: 731, Isoform 1 of Myosin-9 [651], MYH9",0.75 log 2
same,L/H ratio of acetylated peptide AAETCQEPK(ac)EFR,"SEQ ID NO: 732, NADH dehydrogenase [ubiquinone] 1 alpha subcomplex assembly factor 4 [91], NDUFAF4",0.75 log 2
same,L/H ratio of acetylated peptide VVLIGDSGVGK(ac)SNLLSR,"SEQ ID NO: 733, Ras-related protein Rab-11B [24], RAB11B",0.76 log 2
same,L/H ratio of acetylated peptide SGK(ac)YVLGYK,"SEQ ID NO: 734, 60S ribosomal protein L30 [26], RPL30",0.76 log 2
same,L/H ratio of acetylated peptide ILMEHIHK(ac)LK,"SEQ ID NO: 735, 60S ribosomal protein L19 [144], RPL19",0.76 log 2
same,L/H ratio of acetylated peptide EK(ac)VFYSLMR,"SEQ ID NO: 736, Epoxide hydrolase 1 [288], EPHX1",0.78 log 2
same,L/H ratio of acetylated peptide K(ac)FDQLLAEEK,"SEQ ID NO: 737, Isoform 1 of Myosin-9 [1445], MYH9",0.78 log 2
same,L/H ratio of acetylated peptide FVEFDMK(ac)PVCK,"SEQ ID NO: 738, Isoform 2 of LIM and senescent cell antigen-like-containing domain protein 2 [326], LIMS2",0.79 log 2
same,L/H ratio of acetylated peptide K(ac)GFITVDGR,"SEQ ID NO: 739, Laminin subunit alpha-1 [2808], LAMA1",0.79 log 2
same,L/H ratio of acetylated peptide KAEAQIAAK(ac)NLDK,"SEQ ID NO: 740, Aspartate aminotransferase mitochondrial [90], GOT2",0.80 log 2
same,L/H ratio of acetylated peptide DK(ac)QFVAK,"SEQ ID NO: 741, Staphylococcal nuclease domain-containing protein 1 [341], SND1",0.80 log 2
same,L/H ratio of acetylated peptide AGACNTVIK(ac)QLMR,"SEQ ID NO: 742, Isoform SERCA3B of Sarcoplasmic/endoplasmic reticulum calcium ATPase 3 [476], ATP2A3",0.82 log 2
same,L/H ratio of acetylated peptide KQQAK(ac)FDECVLDK,"SEQ ID NO: 743, NADH dehydrogenase [ubiquinone] 1 alpha subcomplex subunit 8 [106], NDUFA8",0.82 log 2
same,L/H ratio of acetylated peptide ALCTGEK(ac)GFGYK,"SEQ ID NO: 744, Peptidyl-prolyl cis-trans isomerase F mitochondrial [86], PPIF",0.82 log 2
same,L/H ratio of acetylated peptide IYK(ac)SDGIK,"SEQ ID NO: 745, ADP/ATP translocase 2 [166], SLC25A5",0.83 log 2
same,L/H ratio of acetylated peptide DEGGK(ac)AFFK,"SEQ ID NO: 746, ADP/ATP translocase 2 [268], SLC25A5",0.84 log 2
same,L/H ratio of acetylated peptide SYLK(ac)EFR,"SEQ ID NO: 747, Isoform 1 of Trans-23-enoyl-CoA reductase [291], TECR",0.85 log 2
same,L/H ratio of acetylated peptide VPK(ac)TAENFR,"SEQ ID NO: 748, Peptidyl-prolyl cis-trans isomerase D [43], PPID",0.85 log 2
same,L/H ratio of acetylated peptide VNCLDK(ac)FWHK,"SEQ ID NO: 749, Isoform 1 of LIM and SH3 domain protein 1 [23], LASP1",0.85 log 2
same,L/H ratio of acetylated peptide KGEDFVK(ac)TLK,"SEQ ID NO: 750, Malate dehydrogenase mitochondrial [335], MDH2",0.85 log 2
same,L/H ratio of acetylated peptide EAEFTK(ac)SIAK,"SEQ ID NO: 751, Signal peptidase complex subunit 2 [191], LOC653566, SPCS2",0.86 log 2
same,L/H ratio of acetylated peptide SGYYK(ac)VLGK,"SEQ ID NO: 752, 60S ribosomal protein L27a [110], RPL27A",0.86 log 2
same,L/H ratio of acetylated peptide YVLGYK(ac)QTLK,"SEQ ID NO: 753, 60S ribosomal protein L30 [32], RPL30",0.87 log 2
same,L/H ratio of acetylated peptide FEDK(ac)TVAYTEQK,"SEQ ID NO: 754, Protein disulfide-isomerase A3 [218], PDIA3",0.88 log 2
same,L/H ratio of acetylated peptide IVNALK(ac)SQVDK,"SEQ ID NO: 755, Ornithine aminotransferase mitochondrial [102], OAT",0.88 log 2
same,L/H ratio of acetylated peptide ILEFFGLK(ac)K,"SEQ ID NO: 756, Protein disulfide-isomerase [308], P4HB",0.89 log 2
same,L/H ratio of acetylated peptide LCGQDLNK(ac)TSR,"SEQ ID NO: 757, Isoform 1 of UDP-N-acetylglucosamine--dolichyl-phosphate N-acetylglucosaminephospho-, DPAGT1",0.89 log 2
same,L/H ratio of acetylated peptide,"SFDK(ac)NLYR (SEQ ID NO: 477), DNA replication licensing factor MCM4 [220], MCM4",−0.55 log 2
same,L/H ratio of acetylated peptide LFAK(ac)[…] (SEQ ID NO: 98),"SFPQ [319], log 2 scale, drug vs DMSO",0.00
same,L/H ratio of acetylated peptide […](ac)GK (SEQ ID NO: 99),"SFPQ [330], log 2 scale, drug vs DMSO",0.00
same,L/H ratio of acetylated peptide GFGFIK(ac)LESR (SEQ ID NO: 97),"SFPQ [338], log 2 scale, drug vs DMSO",0.00
same,L/H ratio of acetylated peptide […](ac)MILIGR (SEQ ID NO: 100),"SFXN1 [86], log 2 scale, drug vs DMSO",0.00
same,L/H ratio of acetylated peptide […](ac)DK (SEQ ID NO: 103),"SLC25A5 [92], log 2 scale, drug vs DMSO",0.00
same,L/H ratio of acetylated peptide AFFK(ac)GAWSNVLR (SEQ ID NO: 102),"SLC25A5 [272], log 2 scale, drug vs DMSO",0.00
same,L/H ratio of acetylated peptide […](ac)ANVAK (SEQ ID NO: 101),"SLC25A10 [173], log 2 scale, drug vs DMSO",0.00
same,L/H ratio of acetylated peptide TWEK(ac)LLLAAR (SEQ ID NO: 104),"SNORA6, RPSAP15, SNORA62, RPSA [57], log 2 scale, drug vs DMSO",0.00
